How the values were obtained:
Assay in all cases: scanMAX KINOMEscan (Eurofins)
Format in all cases: binding
[1] = biological target: AKT2 (Homo sapiens, UniProt P31751); details: read-out: Percent Control
Excerpt: (§1) Supplement cb5c00097_si_002.xlsx, sheet "Table S6 (Eurofins Selectivity)" | column: Percent Control

[2] = biological target: ANKK1 (Homo sapiens, UniProt Q8NFD2); details: 1000 nM, read-out: Percent Control
Excerpt: as §1

[3] = biological target: BMPR1A (Homo sapiens, UniProt P36894); details: 1000 nM, read-out: Percent Control
Excerpt: as §1

[4] = biological target: CAMK4 (Homo sapiens, UniProt Q16566); details: 1000 nM, read-out: Percent Control
Excerpt: as §1

[5] = biological target: CDK7 (Homo sapiens, UniProt P50613); details: read-out: Percent Control
Excerpt: as §1

[6] = biological target: CDK8 (Homo sapiens, UniProt P49336); details: 1000 nM, read-out: Percent Control
Excerpt: as §1

[7] = biological target: CDKL1 (Homo sapiens, UniProt Q00532); details: read-out: Percent Control
Excerpt: as §1

[8] = biological target: CSNK2A2 (Homo sapiens, UniProt P19784); details: 1000 nM, read-out: Percent Control
Excerpt: as §1

[9] = biological target: CTK (Homo sapiens, UniProt P42679); details: 1000 nM, read-out: Percent Control
Excerpt: as §1

[10] = biological target: DMPK2 (Homo sapiens, UniProt Q6DT37); details: read-out: Percent Control
Excerpt: as §1

[11] = biological target: EPHB2 (Homo sapiens, UniProt P29323); details: 1000 nM, read-out: Percent Control
Excerpt: as §1

[12] = biological target: FGFR1 (Homo sapiens, UniProt P11362); details: read-out: Percent Control
Excerpt: as §1

[13] = biological target: JNK2 (Homo sapiens, UniProt P45984); details: 1000 nM, read-out: Percent Control
Excerpt: as §1

[14] = biological target: MAP4K3 (Homo sapiens, UniProt Q8IVH8); details: 1000 nM, read-out: Percent Control
Excerpt: as §1

[15] = biological target: MAP4K4 (Homo sapiens, UniProt O95819); details: 1000 nM, read-out: Percent Control
Excerpt: as §1

[16] = biological target: MARK3 (Homo sapiens, UniProt P27448); details: 1000 nM, read-out: Percent Control
Excerpt: as §1

[17] = biological target: MET (Homo sapiens, UniProt P08581); details: 1000 nM, read-out: Percent Control
Excerpt: as §1

[18] = biological target: MINK (Homo sapiens, UniProt Q8N4C8); details: 1000 nM, read-out: Percent Control
Excerpt: as §1

[19] = biological target: MRCKA (Homo sapiens, UniProt Q5VT25); details: 1000 nM, read-out: Percent Control
Excerpt: as §1

[20] = biological target: MST1R (Homo sapiens, UniProt Q04912); details: 1000 nM, read-out: Percent Control
Excerpt: as §1

[21] = biological target: MYLK4 (Homo sapiens, UniProt Q86YV6); details: compound concentration 100 nM; Entrez MYLK4; read-out: Percent Control
Excerpt: as §1

[22] = biological target: OSR1 (Homo sapiens, UniProt O95747); details: 1000 nM, read-out: Percent Control
Excerpt: as §1

[23] = biological target: PCTK3 (Homo sapiens, UniProt Q07002); details: 1000 nM, read-out: Percent Control
Excerpt: as §1

[24] = biological target: PIK3CD (Homo sapiens, UniProt O00329); details: 1000 nM, read-out: Percent Control
Excerpt: as §1

[25] = biological target: PIKFYVE (Homo sapiens, UniProt Q9Y2I7); details: compound concentration 100 nM; Entrez PIKFYVE; read-out: Percent Control
Excerpt: as §1

[26] = biological target: PLK1 (Homo sapiens, UniProt P53350); details: 1000 nM, read-out: Percent Control
Excerpt: as §1

[27] = biological target: PLK4 (Homo sapiens, UniProt O00444); details: 1000 nM, read-out: Percent Control
Excerpt: as §1

[28] = biological target: PRKG2 (Homo sapiens, UniProt Q13237); details: 1000 nM, read-out: Percent Control
Excerpt: as §1

[29] = biological target: ROS1 (Homo sapiens, UniProt P08922); details: 1000 nM, read-out: Percent Control
Excerpt: as §1

[30] = biological target: S6K1 (Homo sapiens, UniProt P23443); details: compound concentration 100 nM; Entrez RPS6KB1; read-out: Percent Control
Excerpt: as §1

[31] = biological target: SIK (Homo sapiens, UniProt P57059); details: 1000 nM, read-out: Percent Control
Excerpt: as §1

[32] = biological target: SRC (Homo sapiens, UniProt P12931); details: compound concentration 100 nM; Entrez SRC; read-out: Percent Control
Excerpt: as §1

[33] = biological target: TLK1 (Homo sapiens, UniProt Q9UKI8); details: compound concentration 100 nM; Entrez TLK1; read-out: Percent Control
Excerpt: as §1

[34] = biological target: TNNI3K (Homo sapiens, UniProt Q59H18); details: 1000 nM, read-out: Percent Control
Excerpt: as §1

[35] = biological target: WEE1 (Homo sapiens, UniProt P30291); details: 1000 nM, read-out: Percent Control
Excerpt: as §1

[36] = biological target: YANK2 (Homo sapiens, UniProt Q9NY57); details: compound concentration 100 nM; Entrez STK32B; read-out: Percent Control
Excerpt: as §1

[37] = biological target: YES (Homo sapiens, UniProt P07947); details: 1000 nM, read-out: Percent Control
Excerpt: as §1

[38] = biological target: ZAP70 (Homo sapiens, UniProt P43403); details: compound concentration 100 nM; Entrez ZAP70; read-out: Percent Control
Excerpt: as §1

AKT2, sequence (P31751 whole entry): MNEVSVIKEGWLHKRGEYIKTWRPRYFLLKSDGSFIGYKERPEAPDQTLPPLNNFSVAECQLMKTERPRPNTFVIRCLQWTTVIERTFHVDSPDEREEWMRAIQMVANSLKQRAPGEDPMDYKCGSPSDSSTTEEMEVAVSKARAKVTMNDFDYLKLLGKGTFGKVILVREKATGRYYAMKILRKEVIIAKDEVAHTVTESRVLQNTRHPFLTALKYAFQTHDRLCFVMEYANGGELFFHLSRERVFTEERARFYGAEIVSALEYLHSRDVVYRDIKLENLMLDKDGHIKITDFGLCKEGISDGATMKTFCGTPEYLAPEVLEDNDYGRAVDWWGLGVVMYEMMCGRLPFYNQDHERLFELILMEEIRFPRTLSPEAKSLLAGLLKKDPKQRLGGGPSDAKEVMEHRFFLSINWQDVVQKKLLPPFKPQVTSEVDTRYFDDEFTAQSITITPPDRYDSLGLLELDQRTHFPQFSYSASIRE
CDK7, sequence (P50613 whole entry): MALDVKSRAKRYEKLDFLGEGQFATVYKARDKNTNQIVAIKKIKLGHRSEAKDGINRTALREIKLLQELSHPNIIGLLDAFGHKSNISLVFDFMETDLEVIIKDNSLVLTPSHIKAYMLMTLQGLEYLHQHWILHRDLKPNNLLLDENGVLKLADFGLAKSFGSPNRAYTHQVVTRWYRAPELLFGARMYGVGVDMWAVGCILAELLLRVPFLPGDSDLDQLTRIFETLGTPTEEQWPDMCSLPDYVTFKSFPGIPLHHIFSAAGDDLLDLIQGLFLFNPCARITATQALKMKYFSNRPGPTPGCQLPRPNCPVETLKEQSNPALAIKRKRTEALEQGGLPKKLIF
DMPK2, sequence (Q6DT37 whole entry): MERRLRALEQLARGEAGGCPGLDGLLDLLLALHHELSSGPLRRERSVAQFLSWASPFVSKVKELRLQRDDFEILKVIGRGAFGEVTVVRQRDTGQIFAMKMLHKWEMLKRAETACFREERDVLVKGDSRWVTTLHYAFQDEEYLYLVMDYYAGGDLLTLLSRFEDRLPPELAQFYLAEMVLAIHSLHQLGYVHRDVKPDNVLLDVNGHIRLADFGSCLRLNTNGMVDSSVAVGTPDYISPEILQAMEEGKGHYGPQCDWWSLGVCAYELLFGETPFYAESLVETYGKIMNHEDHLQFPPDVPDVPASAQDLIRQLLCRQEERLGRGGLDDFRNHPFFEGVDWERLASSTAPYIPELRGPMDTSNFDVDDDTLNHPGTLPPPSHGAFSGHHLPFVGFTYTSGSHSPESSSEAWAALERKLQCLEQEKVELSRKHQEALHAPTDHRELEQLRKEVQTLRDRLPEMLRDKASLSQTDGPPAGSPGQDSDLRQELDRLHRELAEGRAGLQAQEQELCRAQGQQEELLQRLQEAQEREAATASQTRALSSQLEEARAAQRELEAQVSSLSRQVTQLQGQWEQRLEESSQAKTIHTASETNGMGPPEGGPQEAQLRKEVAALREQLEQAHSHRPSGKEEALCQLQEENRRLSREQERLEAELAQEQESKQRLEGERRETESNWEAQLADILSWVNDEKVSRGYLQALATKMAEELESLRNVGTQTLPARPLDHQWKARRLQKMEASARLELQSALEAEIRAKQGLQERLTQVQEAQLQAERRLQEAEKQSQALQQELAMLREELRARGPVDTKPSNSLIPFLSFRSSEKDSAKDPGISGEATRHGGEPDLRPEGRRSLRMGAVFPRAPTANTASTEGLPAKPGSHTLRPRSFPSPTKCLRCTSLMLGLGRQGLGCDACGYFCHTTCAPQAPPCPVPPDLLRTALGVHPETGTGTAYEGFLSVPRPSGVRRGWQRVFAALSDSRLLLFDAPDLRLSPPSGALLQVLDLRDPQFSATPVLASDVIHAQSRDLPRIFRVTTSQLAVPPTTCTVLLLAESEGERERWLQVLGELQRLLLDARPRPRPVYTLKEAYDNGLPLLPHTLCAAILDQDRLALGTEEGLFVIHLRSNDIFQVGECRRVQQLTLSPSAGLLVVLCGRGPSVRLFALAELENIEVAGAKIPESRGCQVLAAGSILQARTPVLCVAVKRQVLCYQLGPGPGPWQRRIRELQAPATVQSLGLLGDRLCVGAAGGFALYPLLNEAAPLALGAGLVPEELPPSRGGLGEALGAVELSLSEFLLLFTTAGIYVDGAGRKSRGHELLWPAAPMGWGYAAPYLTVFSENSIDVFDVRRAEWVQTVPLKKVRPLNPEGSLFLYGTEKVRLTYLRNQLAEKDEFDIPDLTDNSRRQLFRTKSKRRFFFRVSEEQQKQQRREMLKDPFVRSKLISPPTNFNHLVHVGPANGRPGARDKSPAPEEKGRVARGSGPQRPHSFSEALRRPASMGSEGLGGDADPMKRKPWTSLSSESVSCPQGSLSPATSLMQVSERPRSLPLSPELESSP
FGFR1, sequence (P11362 22-822): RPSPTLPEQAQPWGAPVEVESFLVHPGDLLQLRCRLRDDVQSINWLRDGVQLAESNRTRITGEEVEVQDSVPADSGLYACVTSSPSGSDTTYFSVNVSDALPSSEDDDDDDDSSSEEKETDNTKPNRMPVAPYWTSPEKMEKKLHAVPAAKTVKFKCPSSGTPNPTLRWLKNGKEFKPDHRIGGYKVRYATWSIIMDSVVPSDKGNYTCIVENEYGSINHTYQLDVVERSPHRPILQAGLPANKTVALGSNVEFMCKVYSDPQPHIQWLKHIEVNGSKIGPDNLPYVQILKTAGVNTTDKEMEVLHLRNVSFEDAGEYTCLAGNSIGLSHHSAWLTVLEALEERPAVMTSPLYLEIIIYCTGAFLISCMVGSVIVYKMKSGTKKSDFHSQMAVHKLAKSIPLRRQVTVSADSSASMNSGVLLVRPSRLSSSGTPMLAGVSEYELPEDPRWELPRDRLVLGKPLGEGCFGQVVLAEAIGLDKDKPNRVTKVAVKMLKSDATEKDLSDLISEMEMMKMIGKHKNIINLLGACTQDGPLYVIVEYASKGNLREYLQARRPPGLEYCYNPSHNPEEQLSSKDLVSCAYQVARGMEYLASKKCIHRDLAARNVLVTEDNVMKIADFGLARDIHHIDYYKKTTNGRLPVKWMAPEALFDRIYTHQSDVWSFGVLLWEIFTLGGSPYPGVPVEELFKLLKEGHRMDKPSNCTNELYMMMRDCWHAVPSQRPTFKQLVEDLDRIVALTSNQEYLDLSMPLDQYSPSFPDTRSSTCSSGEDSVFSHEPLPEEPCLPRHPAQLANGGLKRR
CDKL1, sequence (Q00532 whole entry): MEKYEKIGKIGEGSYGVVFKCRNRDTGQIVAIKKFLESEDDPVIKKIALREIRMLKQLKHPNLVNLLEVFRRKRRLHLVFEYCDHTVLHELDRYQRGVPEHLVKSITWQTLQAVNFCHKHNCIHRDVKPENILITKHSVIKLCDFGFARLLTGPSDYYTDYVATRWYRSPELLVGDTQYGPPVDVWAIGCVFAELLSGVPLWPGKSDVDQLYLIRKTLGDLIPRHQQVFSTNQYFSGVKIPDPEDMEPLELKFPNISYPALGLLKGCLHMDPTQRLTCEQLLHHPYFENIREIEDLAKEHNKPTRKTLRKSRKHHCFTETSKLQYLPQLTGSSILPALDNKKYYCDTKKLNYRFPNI
OSR1, sequence (O95747 whole entry): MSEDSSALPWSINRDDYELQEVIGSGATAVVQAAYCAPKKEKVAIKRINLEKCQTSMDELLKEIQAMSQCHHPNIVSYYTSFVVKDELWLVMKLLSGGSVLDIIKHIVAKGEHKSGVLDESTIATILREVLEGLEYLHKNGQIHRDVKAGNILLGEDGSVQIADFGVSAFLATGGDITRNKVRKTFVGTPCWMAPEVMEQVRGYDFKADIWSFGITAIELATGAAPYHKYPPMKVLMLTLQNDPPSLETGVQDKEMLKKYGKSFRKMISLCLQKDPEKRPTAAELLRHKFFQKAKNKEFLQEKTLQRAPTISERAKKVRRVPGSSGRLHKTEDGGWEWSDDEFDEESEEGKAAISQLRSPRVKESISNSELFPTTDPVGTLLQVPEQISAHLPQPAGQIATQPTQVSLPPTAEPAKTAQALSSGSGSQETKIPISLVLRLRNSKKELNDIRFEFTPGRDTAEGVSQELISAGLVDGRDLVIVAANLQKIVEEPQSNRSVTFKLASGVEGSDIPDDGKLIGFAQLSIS
TLK1, sequence (Q9UKI8 whole entry): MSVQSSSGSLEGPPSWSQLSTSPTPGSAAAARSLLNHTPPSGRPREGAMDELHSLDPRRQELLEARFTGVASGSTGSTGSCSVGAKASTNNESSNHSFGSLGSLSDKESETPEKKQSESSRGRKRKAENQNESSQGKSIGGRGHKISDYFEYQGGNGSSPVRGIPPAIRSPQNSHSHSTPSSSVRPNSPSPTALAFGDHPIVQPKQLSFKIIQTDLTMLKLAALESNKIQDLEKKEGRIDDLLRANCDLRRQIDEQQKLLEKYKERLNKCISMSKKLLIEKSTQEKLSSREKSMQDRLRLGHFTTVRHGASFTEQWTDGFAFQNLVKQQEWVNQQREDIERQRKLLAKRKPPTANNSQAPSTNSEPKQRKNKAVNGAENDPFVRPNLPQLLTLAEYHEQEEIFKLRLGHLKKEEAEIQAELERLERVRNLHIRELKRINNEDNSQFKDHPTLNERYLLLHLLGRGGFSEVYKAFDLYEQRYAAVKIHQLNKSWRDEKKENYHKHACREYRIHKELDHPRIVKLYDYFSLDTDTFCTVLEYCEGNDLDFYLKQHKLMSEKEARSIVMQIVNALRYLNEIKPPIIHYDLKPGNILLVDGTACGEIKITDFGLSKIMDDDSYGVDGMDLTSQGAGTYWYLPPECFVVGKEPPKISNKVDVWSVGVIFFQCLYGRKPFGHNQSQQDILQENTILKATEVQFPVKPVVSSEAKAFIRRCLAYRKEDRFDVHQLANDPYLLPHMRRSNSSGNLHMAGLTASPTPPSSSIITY

CN1C(=O)[C@@H](N2CCc3c(nn(Cc4ccccc4)c3C(N)=O)C2=O)COc2cc(Cl)ccc21 [Compound 10, (S)-2-benzyl-6-(8-chloro-5-methyl-4-oxo-2,3,4,5-tetrahydrobenzo[b][1,4]oxazepin-3-yl)-7-oxo-4,5,6,7-tetrahydro-2H-pyrazolo[3,4-c]pyridine-3-carboxamide]
remaining binding at 1 µM ([1]; 1000 nM): 100% | remaining binding at 0.1 µM ([1]; compound concentration 100 nM, Entrez AKT2): 90% | remaining binding at 1 µM [2]: 80% | remaining binding at 1 µM [3]: 80% | remaining binding at 1 µM [4]: 95% | remaining binding at 1 µM ([5]; 1000 nM): 99% | remaining binding at 0.1 µM ([5]; compound concentration 100 nM, Entrez CDK7): 72% | remaining binding at 1 µM [6]: 92% | remaining binding at 1 µM ([7]; 1000 nM): 99% | remaining binding at 0.1 µM ([7]; compound concentration 100 nM, Entrez CDKL1): 96% | remaining binding at 1 µM [8]: 88% | remaining binding at 1 µM [9]: 97% | remaining binding at 1 µM ([10]; 1000 nM): 100% | remaining binding at 0.1 µM ([10]; compound concentration 100 nM, Entrez CDC42BPG): 92% | remaining binding at 1 µM [11]: 81% | remaining binding at 1 µM ([12]; 1000 nM): 100% | remaining binding at 0.1 µM ([12]; compound concentration 100 nM, Entrez FGFR1): 88% | remaining binding at 1 µM [13]: 89% | remaining binding at 1 µM [14]: 92% | remaining binding at 1 µM [15]: 94% | remaining binding at 1 µM [16]: 98% | remaining binding at 1 µM [17]: 94% | remaining binding at 1 µM [18]: 95% | remaining binding at 1 µM [19]: 88% | remaining binding at 1 µM [20]: 91% | remaining binding at 0.1 µM [21]: 92% | remaining binding at 1 µM [22]: 74% | remaining binding at 1 µM [23]: 88% | remaining binding at 1 µM [24]: 83% | remaining binding at 0.1 µM [25]: 98% | remaining binding at 1 µM [26]: 73% | remaining binding at 1 µM [27]: 82% | remaining binding at 1 µM [28]: 90% | remaining binding at 1 µM [29]: 88% | remaining binding at 0.1 µM [30]: 76% | remaining binding at 1 µM [31]: 91% | remaining binding at 0.1 µM [32]: 85% | remaining binding at 0.1 µM [33]: 88% | remaining binding at 1 µM [34]: 80% | remaining binding at 1 µM [35]: 95% | remaining binding at 0.1 µM [36]: 99% | remaining binding at 1 µM [37]: 90% | remaining binding at 0.1 µM [38]: 84%
